Source: patent US20230416261A1, “ETHANEDIAMINE-HETEROCYCLE DERIVATIVES AS INHIBITORS OF PROTEIN ARGININE METHYLTRANSFERASES” (Board of Regents, The University of Texas System, priority 2021, published 2023)
pIC50: −log10 of the molar value.

Assays:
DOHH2 cells = assay: DOHH2 Long Term Phenotypic Assay (7 days, Cell Titer-Glo viability); type: cell-based; conditions: Homo sapiens, DOHH-2, 168 h, Cell Titer-Glo 2.0
Description: DOHH2 cells were kindly provided by Michael Green (MDACC). The cells were routinely maintained in RPMI-1640 Medium (ATCC, Catalog #30-2001) supplemented with 10% fetal bovine serum (Sigma, Catalog #F2442), 100 units/mL penicillin and 100 μg/mL streptomycin (Gibco, Catalog #15140-122) in a humidified incubator (37° C., 5% CO2). Cells were seeded onto a white, CulturPlate-384 (Perkin Elmer, catalog #6007680) at a density of 250 cells per well in a volume of 50 μL. Stock solutions of the test compounds were prepared in 100% DMSO (Sigma, Catalog #D2650) and serially diluted 1:3 using 100% DMSO. Compounds were additionally diluted 1:33 in culture medium, and 10 μL/well was transferred to the tissue culture plate. Following the compound addition, the plate was incubated at 37° C. and 5% CO2 for 7 days. Cells were then mixed and a 30 μL volume was removed. Viability was assessed by a 30 μL addition of Cell Titer-Glo 2.0 (Promega, catalog #G9243). The plate was then shaken on an orbital shaker at 300 RPM for 10 minutes at room temperature, in the dark. Luminescence was measured using a PerkinElmer Envision™ plate reader. IC50 values were calculated using a four-parameter logistic curve fit using Genedata Screener software.

PRMT1 [1] = target: T1, PRMT1 (Homo sapiens, UniProt Q99873); assay: PRMT1 Enzymatic Assay (LANCE TR-FRET, methylation of histone H4 at Arg3); type: biochemical; parameters: purchased SignalChem P365-380G; conditions: PRMT1 1.5 nM, SAM 1 μM, biotinylated histone H4 (1-21) 25 nM; read-out: PRMT-1 IC50
Description: In order to measure PRMT1 enzymatic activity the LANCE TR-FRET assay from PerkinElmer was used to follow the methylation of histone H4 at Arg3 using S-adenosyl-L-methionine (SAM) as the methyl group donor.
This enzymatic assay was performed in a 384 well, white, low volume plate (PerkinElmer, Catalog 6008289) with assay buffer consisting of 50 mM Hepes (pH 8) (Teknova, Catalog #H1090), 1 mM TCEP (Sigma, Catalog #C4706), and 0.003% Tween-20 (Thermo, Catalog #85114). Stock solutions of the test compounds were prepared in 100% DMSO (Sigma, Catalog #D2650) and serially diluted 1:3 using 100% DMSO. Compounds were additionally diluted 1:40 in assay buffer, and 2 uL/well were transferred to the assay plate. 4 uL/well (final concentration 1.5 nM) of PRMT1 protein (SignalChem, Catalog #P365-380G) diluted in assay buffer was added to the assay plate followed by a 15 min preincubation at room temperature. 4 uL/well of SAM (Sigma, Catalog #A7007) and biotinylated histone H4 (1-21) (AnaSpec, Catalog #62555) (final concentrations 1 μM and 25 nM, respectively) diluted in assay buffer were then added to the assay plate followed by a 1 hour reaction time. Final concentrations of PRMT1, SAM, and histone H4 (1-21) refer to a […].
Detection of methylated histone H4 (H4R^3me) was achieved by combining LANCE Ultra Europium-anti-H4R^3me antibody (PerkinElmer, Catalog #TRF04-14), LANCE Ultra ULight-anti-streptavidin antibody (PerkinElmer, Catalog #TRF0102), and sinefungin (Sigma, Catalog #S8559) (final concentrations 2 nM, 50 nM, and 100 μM respectively) in 1× LANCE detection buffer (PerkinElmer, Catalog #CR97-100) and adding L/well of the detection solution to the assay plate. Detection reagents were allowed to react for 1 hour at room temperature. Final concentrations in the detection solution refer to a L volume. The europium fluorescence signal and the ULight TR-FRET signal were measured using a BioTek Synergy Neo plate reader: excitation at 330 nm, emission at 620 nm and 665 nm respectively, and the ratio of the two signals (665 nm/620 nm) was used for curve fitting. IC50 values were calculated using a four-parameter logistic curve fit using Genedata Screener software.

PRMT1 [2] = target: T1, PRMT1; assay: PRMT1 RKO Cellular Target Engagement Assay (In-Cell Western, asymmetric di-methyl arginine); type: cell-based; conditions: RKO cells, 48 hr compound incubation; read-out: RKO IC50 (PRMT-1 Target Engagement)
Description: RKO cells were routinely maintained in EMEM media (ATCC, Catalog #30-2003) supplemented with 10% fetal bovine serum (Sigma, Catalog #F2442) using a humidified incubator (37° C., 5% CO2, and ambient O2).
In preparation for the In-Cell Western assay, cells were harvested and resuspended in EMEM media supplemented with 10% fetal bovine serum. Cells were seeded onto a 384 well, black, clear bottom, Poly-D-Lysine coated tissue culture plate (Greiner, Catalog #781946) at a density of 1,000 cells/well in a volume of 40 μL. The culture plate was incubated for 24 hr at 37° C. with 5% CO2 and ambient O2. Stock solutions of the test compounds were prepared in 100% DMSO (Sigma, Catalog #D2650) and serially diluted 1:3 using 100% DMSO. Compounds were additionally diluted 1:40 in culture medium, and 10 μL/well was transferred to the tissue culture plate. Following the compound addition the microplate was incubated at 37° C. for 48 hr.
The media was removed, the plate was washed with 1× PBS (Fisher Bioreagents, Catalog #BP399-20), and cells were fixed for 10 min using 30 μL/well of 4% paraformaldehyde (Electron Microscopy Sciences, Catalog #15710). The paraformaldehyde was removed, the plate was again washed with 1× PBS, and cells were permeabilized for 15 min using 30 μL/well of 1× PBS containing 0.5% Triton-X 100 (Sigma, Catalog #1001748095). The permeabilization buffer was removed, the plate was washed with 1× PBST (Boston BioProducts, Catalog #IBB-171X), and 50 μL/well of blocking buffer (LI-COR, Catalog #927-40000) was added followed by a 1 hour incubation at room temperature. The blocking buffer was removed, and 20 μL/well of anti-asymmetric di-methyl arginine antibody (Cell Signaling, Catalog #13522S) diluted 1:1000 in LI-COR blocking buffer was added to the plate and incubated overnight, in the dark at 4° C.
The primary antibody was then removed, and the plate was washed three times with 1× PBST. 20 μL/well of CellTag (LI-COR, Catalog #926-41090) and IRDye 800CW goat anti-rabbit IgG antibody (LI-COR, Catalog #926-32211), each diluted 1:500 in LI-COR blocking buffer supplemented with 0.1% Tween-20 (Thermo Scientific, Catalog #85114), were added to the plate. The plate was then incubated in the dark, at room temperature for 1 hour followed by three washes with 1× PBST and one wash with H2O. The IRDye secondary antibody signal (800 channel) and the CellTag signal (700 channel) were measured using a Licor Odyssey Imager, and the 800 channel signal was then normalized to the 700 channel signal. IC50 values were calculated using a four-parameter logistic curve fit using Genedata Screener software.

T1 sequence (Q99873 whole entry): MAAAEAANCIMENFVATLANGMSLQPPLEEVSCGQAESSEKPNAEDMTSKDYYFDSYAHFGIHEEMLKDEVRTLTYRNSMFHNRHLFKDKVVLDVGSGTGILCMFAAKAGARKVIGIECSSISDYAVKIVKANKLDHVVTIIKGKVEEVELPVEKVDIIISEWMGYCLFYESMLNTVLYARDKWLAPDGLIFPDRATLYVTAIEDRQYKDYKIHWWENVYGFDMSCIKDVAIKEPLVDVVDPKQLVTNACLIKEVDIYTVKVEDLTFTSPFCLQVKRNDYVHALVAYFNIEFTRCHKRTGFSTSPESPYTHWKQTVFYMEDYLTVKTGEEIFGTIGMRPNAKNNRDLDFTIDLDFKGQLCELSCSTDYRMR

| Structure (SMILES) | pIC50 (DOHH2 cells) | pIC50 (PRMT1 [1]) | pIC50 (PRMT1 [2]) |
| --- | --- | --- | --- |
| CCOC12CC(C(=O)N3CCn4nc(CN(C)CCNC)c(C5CCC(COC)(COC)CC5)c4C3)(C1)C2 [Example 26, (3-(4,4-bis(methoxymethyl)-cyclohexyl)-2-((methyl(2-(methylamino)ethyl)amino)-methyl)-6,7-dihydropyrazolo-[1,5-a]pyrazin-5(4H)-yl)(3-ethoxybicyclo[1.1.1]pentan-1-yl)methanone] | 6.07 | 6.36 | 5.62 |
| CNCCN(C)Cc1nn2c(c1C1CCC(COC)(COC)CC1)CN(C(=O)C1CCCCC1)CC2 [Example 51, (3-(4,4-bis(methoxymethyl)-cyclohexyl)-2-((methyl(2-(methylamino)ethyl)amino)-methyl)-6,7-dihydropyrazolo-[1,5-a]pyrazin-5(4H)-yl)-(cyclohexyl)methanone] | 7.12 | 7.24 | 5.00 |
| CNCCN(C)Cc1nn2c(c1C1CCC(COC)(COC)CC1)CN(C(=O)CC#N)CC2 [Example 52, 3-(3-(4,4-bis(methoxy-methyl)cyclohexyl)-2-((methyl(2-(methylamino)-ethyl)amino)methyl)-6,7-dihydropyrazolo[1,5-a]-pyrazin-5(4H)-yl)-3-oxopropanenitrile] | 6.29 | 7.15 | 6.79 |
| CNCCN(C)Cc1nn2c(c1C1CCC(COC)(COC)CC1)CN(C(=O)C(C)(C)COC)CC2 [Example 54, 1-(3-(4,4-bis(methoxy-methyl)cyclohexyl)-2-((methyl(2-(methylamino)-ethyl)amino)methyl)-6,7-dihydropyrazolo[1,5-a]-pyrazin-5(4H)-yl)-3-methoxy-2,2-dimethylpropan-1-one] | 6.53 | 6.99 | 6.69 |
| CNCCN(C)Cc1nn2c(c1C1CCC(COC)(COC)CC1)CN(C(C)=O)CC2 [Example 55, 1-(3-(4,4-bis(methoxy-methyl)cyclohexyl)-2-((methyl(2-(methylamino)-ethyl)amino)methyl)-6,7-dihydropyrazolo[1,5-a]-pyrazin-5(4H)-yl)ethan-1-one] | 6.53 | 7.15 | 5.95 |
| CNCCN(C)Cc1nn2c(c1C1CCC(COC)(COC)CC1)CN(C(=O)C1CCC(F)(F)C1)CC2 (stereo not drawn) [Example 56, (3-(4,4-bis(methoxymethyl)-cyclohexyl)-2-((methyl(2-(methylamino)ethyl)amino)-methyl)-6,7-dihydropyrazolo-[1,5-a]pyrazin-5(4H)-yl)(3,3-difluorocyclopentyl)-methanone] | 7.08 | 7.27 | 6.41 |
| CNCCN(C)Cc1nn2c(c1C1CCC(COC)(COC)CC1)CN(C(=O)C1(C)CCCO1)CC2 (stereo not drawn) [Example 57, (3-(4,4-bis(methoxymethyl)-cyclohexyl)-2-((methyl(2-(methylamino)ethyl)amino)-methyl)-6,7-dihydropyrazolo-[1,5-a]pyrazin-5(4H)-yl)(2-methyltetrahydrofuran-2-yl)-methanone] | 6.77 | 7.10 | 6.57 |
| CNCCN(C)Cc1nn2c(c1C1CCC(COC)(COC)CC1)CN(C(=O)C(C)(C)F)CC2 [Example 59, 1-(3-(4,4-bis(methoxy-methyl)cyclohexyl)-2-((methyl(2-(methylamino)-ethyl)amino)methyl)-6,7-dihydropyrazolo[1,5-a]-pyrazin-5(4H)-yl)-2-fluoro-2-methylpropan-1-one] | 6.95 | 7.32 | 6.75 |
| COCC1(COC)CCC(c2c(CN(C)CCN)nn3c2CN(C(=O)C2CC(C(F)(F)F)C2)CC3)CC1 (stereo not drawn) [Example 62, (2-(((2-aminoethyl)(methyl)-amino)methyl)-3-(4,4-bis-(methoxymethyl)cyclohexyl)-6,7-dihydropyrazolo[1,5-a]-pyrazin-5(4H)-yl)(3-(trifluoromethyl)cyclobutyl)-methanone] | 7.12 | 7.64 | 5.86 |
| CNCCN(C)Cc1nn2c(c1C1CCC(COC)(COC)CC1)CN(C(=O)C1(C(C)C)CCC1)CC2 [Example 64, (3-(4,4-bis(methoxymethyl)-cyclohexyl)-2-((methyl(2-(methylamino)ethyl)amino)-methyl)-6,7-dihydropyrazolo-[1,5-a]pyrazin-5(4H)-yl)(1-isopropylcyclobutyl)-methanone] | 6.64 | 6.95 | 5.63 |
| CCC(C)C(=O)N1CCn2nc(CN(C)CCNC)c(C3CCC(COC)(COC)CC3)c2C1 (stereo not drawn) [Example 65, 1-(3-(4,4-bis(methoxy-methyl)cyclohexyl)-2-((methyl(2-(methylamino)-ethyl)amino)methyl)-6,7-dihydropyrazolo[1,5-a]-pyrazin-5(4H)-yl)-2-methylbutan-1-one] | 6.87 | 7.15 | 6.27 |
| CNCCN(C)Cc1nn2c(c1C1CCC(COC)(COC)CC1)CN(C(=O)C1CC(C(F)F)C1)CC2 (stereo not drawn) [Example 66, (3-(4,4-bis(methoxymethyl)-cyclohexyl)-2-((methyl(2-(methylamino)ethyl)amino)-methyl)-6,7-dihydropyrazolo-[1,5-a]pyrazin-5(4H)-yl)(3-(difluoromethyl)cyclobutyl)-methanone] | 6.82 | 7.28 | 6.02 |
| CCC1(C(=O)N2CCn3nc(CN(C)CCNC)c(C4CCC(COC)(COC)CC4)c3C2)CCC1 [Example 67, (3-(4,4-bis(methoxymethyl)-cyclohexyl)-2-((methyl(2-(methylamino)ethyl)amino)-methyl)-6,7-dihydropyrazolo-[1,5-a]pyrazin-5(4H)-yl)(1-ethylcyclobutyl)methanone] | 6.81 | 7.12 | 6.56 |
